Measured values from ChEMBL document CHEMBL1201862, “PubChem BioAssay data set” (2004).
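Five compound concentrations were applied to cells in 96-well plates for 48 hours; endpoints were derived by simple linear interpolation of the resulting dose-response curve. GI50 = concentration required for 50% inhibition of growth.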 Activity calls are given as the source filed them. Cut-off read from the data, not from the text of the source: active = GI50 up to about 1.1 µM and inactive = higher.

Columns and labels:
Test in all cases: DTP human tumour cell line panel, 48 h
MDA-N = tested on: MDA-N
SNB-19 = tested on: SNB-19
OVCAR-3 = tested on: OVCAR-3
PC-3 = tested on: PC-3
RXF 393 = tested on: RXF 393
HCT-15 = tested on: HCT-15
TK-10 = tested on: TK-10
DU-145 = tested on: DU-145
K562 = tested on: K562
OVCAR-5 = tested on: OVCAR-5
ACHN = tested on: ACHN
IGROV-1 = tested on: IGROV-1
RPMI-8226 = tested on: RPMI-8226
SK-MEL-2 = tested on: SK-MEL-2
HOP-92 = tested on: HOP-92
OVCAR-8 = tested on: OVCAR-8
Malme-3M = tested on: Malme-3M
HCT-116 = tested on: HCT-116
MDA-MB-435 = tested on: MDA-MB-435
SF-539 = tested on: SF-539

Compound: CC(=O)Oc1cc2c(cc1OC(C)=O)[C@H]1CC[C@]3(C)[C@@H](OC(C)=O)CC[C@H]3[C@@H]1CC2
- GI50 (MDA-N): 0.773 µM (active)
- GI50 (SNB-19): 6.65 µM (inactive)
- GI50 (OVCAR-3): 2.21 µM (inactive)
- GI50 (PC-3): 9.29 µM (inactive)
- GI50 (RXF 393): 4.5 µM (inactive)
- GI50 (HCT-15): 1.48 µM
- GI50 (TK-10): 8.28 µM (inactive)
- GI50 (DU-145): 3.15 µM (inactive)
- GI50 (K562): 2.23 µM (inactive)
- GI50 (OVCAR-5): 10.1 µM (inactive)
- GI50 (ACHN): 3.56 µM (inactive)
- GI50 (IGROV-1): 3.77 µM (inactive)
- GI50 (RPMI-8226): 1.92 µM (inactive)
- GI50 (SK-MEL-2): 3.06 µM (inactive)
- GI50 (HOP-92): 1.1 µM (active)
- GI50 (OVCAR-8): 6.7 µM (inactive)

Compound: O=c1cnc2cc3ccccc3cc2[nH]1
- GI50 (MDA-N): > 100 µM (inactive)
- GI50 (SNB-19): 71.6 µM (inactive)
- GI50 (OVCAR-3): > 100 µM (inactive)
- GI50 (PC-3): > 100 µM (inactive)
- GI50 (RXF 393): > 100 µM (inactive)
- GI50 (HCT-15): > 100 µM
- GI50 (TK-10): > 100 µM (inactive)
- GI50 (Malme-3M): > 100 µM (inactive)
- GI50 (HCT-116): > 100 µM (inactive)
- GI50 (K562): > 100 µM (inactive)
- GI50 (OVCAR-5): > 100 µM (inactive)
- GI50 (ACHN): > 100 µM (inactive)
- GI50 (IGROV-1): > 100 µM (inactive)
- GI50 (RPMI-8226): > 100 µM (inactive)
- GI50 (SK-MEL-2): > 100 µM (inactive)
- GI50 (HOP-92): > 100 µM (inactive)
- GI50 (MDA-MB-435): > 100 µM (inactive)
- GI50 (OVCAR-8): > 100 µM (inactive)

Compound: CC(=O)c1cccc(NC(=O)C(=O)NNc2nnc(S)n2N)c1
- GI50 (MDA-N): 2.27 µM (inactive)
- GI50 (SNB-19): 6.25 µM (inactive)
- GI50 (OVCAR-3): 3.99 µM (inactive)
- GI50 (PC-3): 3.27 µM (inactive)
- GI50 (RXF 393): 10.4 µM (inactive)
- GI50 (HCT-15): 4.9 µM
- GI50 (TK-10): 25.9 µM (inactive)
- GI50 (DU-145): 6.58 µM (inactive)
- GI50 (Malme-3M): 1.93 µM (inactive)
- GI50 (SF-539): 6.18 µM (inactive)
- GI50 (HCT-116): 4 µM (inactive)
- GI50 (K562): 4.85 µM (inactive)
- GI50 (OVCAR-5): 17.3 µM (inactive)
- GI50 (ACHN): 7.33 µM (inactive)
- GI50 (IGROV-1): 8.61 µM (inactive)
- GI50 (RPMI-8226): 13.6 µM (inactive)
- GI50 (SK-MEL-2): 3.06 µM (inactive)
- GI50 (HOP-92): 13.9 µM (inactive)
- GI50 (OVCAR-8): 5.46 µM (inactive)

Compound: CC(=O)NC1C(CO)O[C@@H]2OC(C)(C)O[C@H]12 (stereo not given in full)
- GI50 (MDA-N): > 100 µM (inactive)
- GI50 (SNB-19): > 100 µM (inactive)
- GI50 (OVCAR-3): > 100 µM (inactive)
- GI50 (PC-3): > 100 µM (inactive)
- GI50 (HCT-15): > 100 µM
- GI50 (TK-10): > 100 µM (inactive)
- GI50 (Malme-3M): > 100 µM (inactive)
- GI50 (SF-539): > 100 µM (inactive)
- GI50 (HCT-116): > 100 µM (inactive)
- GI50 (OVCAR-5): > 100 µM (inactive)
- GI50 (ACHN): > 100 µM (inactive)
- GI50 (IGROV-1): > 100 µM (inactive)
- GI50 (RPMI-8226): > 100 µM (inactive)
- GI50 (SK-MEL-2): > 100 µM (inactive)
- GI50 (HOP-92): > 100 µM (inactive)
- GI50 (MDA-MB-435): > 100 µM (inactive)
- GI50 (OVCAR-8): > 100 µM (inactive)

Compound: COC(=O)C(=O)C(C(=O)C(=O)Nc1ccccc1C(=O)OC)c1nc2ccc(C(=O)c3ccccc3)cc2nc1O (stereo not given)
- GI50 (MDA-N): 28.4 µM (inactive)
- GI50 (OVCAR-3): > 100 µM (inactive)
- GI50 (PC-3): 40.4 µM (inactive)
- GI50 (RXF 393): 33.4 µM (inactive)
- GI50 (HCT-15): 46.8 µM
- GI50 (TK-10): > 100 µM (inactive)
- GI50 (Malme-3M): 76.9 µM (inactive)
- GI50 (SF-539): > 100 µM (inactive)
- GI50 (HCT-116): > 100 µM (inactive)
- GI50 (K562): 36.1 µM (inactive)
- GI50 (OVCAR-5): > 100 µM (inactive)
- GI50 (ACHN): 52.6 µM (inactive)
- GI50 (IGROV-1): 62.8 µM (inactive)
- GI50 (RPMI-8226): 51.9 µM (inactive)
- GI50 (SK-MEL-2): > 100 µM (inactive)
- GI50 (HOP-92): > 100 µM (inactive)
- GI50 (MDA-MB-435): 38.9 µM (inactive)
- GI50 (OVCAR-8): 39.4 µM (inactive)

Compound: C=C1C(=O)O[C@H]2C1C[C@H](O)/C(C)=C/CC[C@@]1(C)O[C@H]21 (stereo not given in full)
- GI50 (MDA-N): 13.7 µM (inactive)
- GI50 (SNB-19): 60.1 µM (inactive)
- GI50 (RXF 393): 15 µM (inactive)
- GI50 (HCT-15): 12.2 µM
- GI50 (TK-10): 15.6 µM (inactive)
- GI50 (DU-145): 21.2 µM (inactive)
- GI50 (Malme-3M): 6.14 µM (inactive)
- GI50 (HCT-116): 14.8 µM (inactive)
- GI50 (K562): 8.53 µM (inactive)
- GI50 (OVCAR-5): 19.1 µM (inactive)
- GI50 (ACHN): 8.38 µM (inactive)
- GI50 (IGROV-1): 14.8 µM (inactive)
- GI50 (RPMI-8226): 5.2 µM (inactive)
- GI50 (SK-MEL-2): 15.2 µM (inactive)
- GI50 (HOP-92): 17.3 µM (inactive)
- GI50 (MDA-MB-435): 17.8 µM (inactive)
- GI50 (OVCAR-8): 18 µM (inactive)
